Reference: the NIST ThermoML archive (doi:10.1016/j.jct.2013.08.020)
± gives the expanded uncertainty stated by the source.

Key:
[1] = refractive index (Na D-line) (dimensionless); settings: 298.15 K; 101 kPa; Liquid; Standard Abbe refractometry
[2] = Liquid; for vapor or sublimation pressure: Ebulliometric method (Recirculating still)

refractive index [1]	vapor or sublimation pressure ([2]; 351.45 K) [kPa]	mass density ([2]; 298.15 K, 101 kPa, Vibrating tube method) [kg/m3]	vapor or sublimation pressure ([2]; 373.15 K) [kPa]	Structure (SMILES)
1.35924 ± 0.00032	101.3 ± 0.5			CCO [ethanol]
1.43851 ± 0.00037		1049.68 ± 0.27		OCCCO [propan-1,3-diol]
1.33237 ± 0.00032			101.3 ± 0.5	O [water]
